Test results taken from US7414042B2, “Method and composition for selectively inhibiting melanoma” (The Board of Trustees of The University of Illinois, priority 1995, dated 2008).
Converted amounts (≈) assume the structure as drawn. Like-named read-outs stand apart in the source and are kept apart here.

How the values were obtained:
[1] = tested on: human melanoma and nonmelanoma cancer cell lines; assay: Cytotoxicity profile across the panel of human cancer cell lines; conditions: Table 1 panel
Protocol: (§2) In the following Table 1, the extracted betulinic acid and the other pure compounds were tested for cycotoxity against the following cultured human cell lines: A431 (squamous cells), BC-1 (breast), COL-2 (colon), HT-1080 (sarcoma), KB (human oral epidermoid carcinoma), LNCaP (prostate), LU-1 (lung), MEL-2 (melanoma), U373 (glioma) and ZR-75-1 (breast).
(§3) Cytotoxicity of the crude extracts and purified compounds was determined in a number of cultured human cancer cell lines. The cells were cultured in appropriate media and under standard conditions. To maintain logarithmic growth, the media were changed 24 hours prior to cytotoxic assays. On the day of the assay, the cells were harvested by trypsinization, counted, diluted in media, and added to 96-well plates containing test compounds dissolved in DMSO; the final DMSO concentration was 0.05%.
(§4) The plates were incubated for three days. Following the incubation period, the cells were fixed and stained with sulforhodamine B (SRB) dye. The bound dye was liberated with Tris base, and the OD515 was measured on an ELISA reader. The growth of the betulinic acid-treated cells was determined by the OD515 values, and the growth was compared to the OD515 values of DMSO-treated control cells. Dose response studies were performed to generate ED50 values.
(§5) The biological evaluation of the derivatives focused on the activity against human melanoma cell lines. In particular, the following betulinic acid derivatives were prepared and tested for cytotoxicity profile against human melanoma cell lines and against a number of selected nonmelanoma cell lines.

MEL-2 (melanoma) = assay: Cytotoxicity against cultured human melanoma cells (SRB); format: cell-based; conditions: for IC50: Homo sapiens, MEL2, 72 h, three days incubation, SRB, Table 1 and text, read-out: ED50 MEL-2; for ED50 (Std. Dev.) MEL-2: derivatives, Tables 2-6
Protocol: (§1) The plates were incubated for three days. […] Dose response studies were performed to generate ED50 values.

LNCaP (prostate) = assay: Cytotoxicity against cultured human cancer cells (SRB); format: cell-based; conditions: Homo sapiens, LNCaP, 72 h, read-out: ED50 LNCaP
Protocol: as §1

COL-2 (colon) = assay: as above; format: cell-based; conditions: Homo sapiens, Col2, 72 h, read-out: ED50 COL-2
Protocol: as §1

ZR-75-1 (breast) = assay: as above; format: cell-based; conditions: Homo sapiens, ZR-75-1, 72 h, read-out: ED50 ZR 75-1
Protocol: as §1

BC-1 (breast) = assay: as above; format: cell-based; conditions: Homo sapiens, 72 h, read-out: ED50 BC-1
Protocol: as §1

HT-1080 (sarcoma) = assay: as above; format: cell-based; conditions: Homo sapiens, HT-1080, 72 h, three days incubation, read-out: ED50 HT-1080
Protocol: as §1

[2] = tested on: MALE-3M melanoma cell line; assay: Cytotoxicity of betulinic acid derivatives; format: cell-based, human; conditions: Tables 2-6
Protocol: as §1

MEL-6 melanoma cell line = assay: Cytotoxicity of betulinic acid derivatives; format: cell-based, human; conditions: Tables 2-6
Protocol: as §1

LOX melanoma cell line = assay: Cytotoxicity of betulinic acid derivatives; format: cell-based, human; conditions: Tables 2-6
Protocol: as §1

MEL-8 melanoma cell line = assay: Cytotoxicity of betulinic acid derivatives; format: cell-based, human; conditions: Tables 2-6
Protocol: as §1

[3] = tested on: KB (human oral epidermoid carcinoma); assay: Cytotoxicity against cultured human cancer cells (SRB); format: cell-based; conditions: for ED50 (Std. Dev.) KB: derivatives, Tables 2-6; for IC50: Homo sapiens, 72 h, three days incubation, SRB, Table 1, read-out: ED50 KB
Protocol: as §1

[4] = tested on: human melanoma and nonmelanoma cancer cell lines
Protocol: as §2, §3, §4, §5

A431 (squamous cells) = assay: Cytotoxicity against cultured human cancer cells (SRB); format: cell-based; conditions: Homo sapiens, A-431, 72 h, read-out: ED50 A431
Protocol: as §1

LU-1 (lung) = assay: as above; format: cell-based; conditions: Homo sapiens, 72 h, three days incubation, read-out: ED50 LU-1
Protocol: as §1

U373 (glioma) = assay: as above; format: cell-based; conditions: Homo sapiens, U373 MG, 72 h, read-out: ED50 U373
Protocol: as §1

SMILES | ED50 (Std. Dev.) MEL-2 (MEL-2 (melanoma)) | ED50 (Std. Dev.) MALE-3M [2] [μg/mL] | ED50 (Std. Dev.) MEL-6 (MEL-6 melanoma cell line) | ED50 (Std. Dev.) LOX (LOX melanoma cell line) [µg/mL] | ED50 (Std. Dev.) MEL-8 (MEL-8 melanoma cell line) | ED50 (Std. Dev.) KB [3] [µg/mL] | cytotoxicity and selectivity compared with betulinic acid or the corresponding analog [4] | other results
CC[C@@]1(O)C(=O)OCc2c1cc1n(c2=O)Cc2cc3ccccc3nc2-1 [Camptothecin] | – | – | – | – | – | – | – | cytotoxic activity profile, cell-type selectivity [1]: relatively intense, nonselective cytotoxic activity; IC50 (MEL-2 (melanoma)): 0.02 µg/mL (≈ 0.0574 µM); IC50 (LNCaP (prostate); three days incubation, SRB): 0.006 µg/mL (≈ 0.0172 µM); IC50 (COL-2 (colon); three days incubation, SRB): 0.005 µg/mL (≈ 0.0144 µM); IC50 (ZR-75-1 (breast); three days incubation, SRB): 0.001 µg/mL (≈ 0.00287 µM); IC50 (BC-1 (breast); three days incubation, SRB): 0.07 µg/mL (≈ 0.201 µM); IC50 (HT-1080 (sarcoma)): 0.01 µg/mL (≈ 0.0287 µM)
C=C(C)C1CCC2(C=O)CCC3(C)C(CCC4C5(C)CCC(=O)C(C)(C)C5CCC43C)C12 (stereo not drawn) [Compound 1] | 7.4 (2.4) μg/mL | >20 | >20 µg/mL | 18.5 (≈ 42.2 µM) | 3.2 (1.2) μg/mL | 12.9 (≈ 29.4 µM) | – | –
C=C(C)C1CCC2(C=NOC)CCC3(C)C(CCC4C5(C)CCC(=NOC)C(C)(C)C5CCC43C)C12 (stereo not drawn) [Compound 3] | >20 µg/mL | >20 | >20 µg/mL | >20 | >20 µg/mL | 20 (≈ 40.3 µM) | – | –
C=C(C)C1CCC2(C=NO)CCC3(C)C(CCC4C5(C)CCC(=NO)C(C)(C)C5CCC43C)C12 (stereo not drawn) [Compound 4] | 2.2 (0.7) μg/mL | 17.5 | 11.9 (2.7) μg/mL | 4.1 (≈ 8.75 µM) | 1.4 (0.6) μg/mL | 3.3 (≈ 7.04 µM) | improved the cytotoxicity profile, although selectivity was lost | –
CON=C1CCC2(C)C(CCC3(C)C2CCC2C4C(C(C)C)CCC4(C(=O)O)CCC23C)C1(C)C (stereo not drawn) [Compound 5] | >20 µg/mL | >20 | >20 µg/mL | – | >20 µg/mL | – | less active | –
CC(C)[C@@H]1CC[C@]2(C(=O)O)CC[C@]3(C)[C@H](CC[C@@H]4[C@@]5(C)CCC(=O)C(C)(C)[C@@H]5CC[C@]43C)[C@@H]12 [Compound 6, Dihydrobetulonic acid] | 0.7 (0.6) μg/mL | 20 | 10.8 (2.6) μg/mL | – | 0.9 (0.4) μg/mL | – | comparable biological activity | –
CC(C)C1CCC2(C(=O)O)CCC3(C)C(CCC4C5(C)CCC(=NO)C(C)(C)C5CCC43C)C12 (stereo not drawn) [Compound 7] | 2.2 (0.3) μg/mL | 13.9 | 13.1 (1.1) μg/mL | – | 1.6 (1.1) μg/mL | – | comparable biological activity | –
C=C(C)[C@@H]1CC[C@]2(C(=O)O)CC[C@]3(C)[C@H](CC[C@@H]4[C@@]5(C)CCC(=O)C(C)(C)[C@@H]5CC[C@]43C)[C@@H]12 [Compound 8, Betulonic acid] | 0.9 (0.8) μg/mL | 20 | 15.3 (3.4) μg/mL | 6.9 (≈ 15.2 µM) | 0.4 (0.1) μg/mL | 2.5 (≈ 5.5 µM) | decrease in selective cytotoxicity | –
CC(C)[C@@H]1CC[C@]2(C(=O)O)CC[C@]3(C)C(CCC4[C@@]5(C)CC[C@H](O)C(C)(C)C5CC[C@]43C)C12 (stereo partly drawn) [Compound 11, Dihydrobetulinic acid] | 5.8 µg/mL (≈ 12.6 µM) | – | – | >20 | – | >20 | less active | –
C=C(C)[C@@H]1CC[C@]2(CO)CC[C@]3(C)[C@H](CC[C@@H]4[C@@]5(C)CC[C@H](O)C(C)(C)[C@@H]5CC[C@]43C)[C@@H]12 [Compound 12, lup-20(29)-ene-3β,28-diol] | >20 µg/mL | – | – | >20 | – | >20 | – | –
C=C(C)C1CCC2(C(=O)O)CCC3(C)C(CCC4C5(C)CCC(=NOC)C(C)(C)C5CCC43C)C12 (stereo not drawn) [Compound 13] | 8.3 µg/mL (≈ 17.2 µM) | – | – | >20 | – | 4.3 (≈ 8.89 µM) | decrease in selective cytotoxicity | –
C=C(C)[C@@H]1CC[C@]2(C(=O)OC)CC[C@]3(C)[C@H](CC[C@@H]4[C@@]5(C)CC[C@H](O)C(C)(C)[C@@H]5CC[C@]43C)[C@@H]12 [Compound 14, Methyl betulinate] | 8.3 µg/mL (≈ 17.6 µM) | – | – | 12.5 (≈ 26.6 µM) | – | 11.8 (≈ 25.1 µM) | – | –
C=C(C)[C@@H]1CC[C@]2(C)CC[C@]3(C)[C@H](CC[C@@H]4[C@@]5(C)CC[C@H](O)C(C)(C)[C@@H]5CC[C@]43C)[C@@H]12 [Compound 15, Lupeol] | 17.6 µg/mL (≈ 41.2 µM) | – | – | 15.6 (≈ 36.6 µM) | – | >20 | – | –
C=C(C)[C@@H]1CC[C@]2(C)CC[C@]3(C)[C@H](CC[C@@H]4[C@@]5(C)CC[C@H](OC(=O)c6ccccc6)C(C)(C)[C@@H]5CC[C@]43C)[C@@H]12 [Compound 16, Lupeol benzoate] | >20 µg/mL | – | – | >20 | – | >20 | – | –
COC(=O)C[C@](O)(CCCC(C)(C)O)C(=O)O[C@@H]1C(OC)=C[C@]23CCCN2CCc2cc4c(cc2[C@H]13)OCO4 [Homoharringtonine] | – | – | – | – | – | – | – | cytotoxic activity profile, cell-type selectivity [1]: relatively intense, nonselective cytotoxic activity; IC50 (MEL-2 (melanoma)): 0.04 µg/mL (≈ 0.0733 µM); IC50 (A431 (squamous cells); three days incubation, SRB): 0.02 µg/mL (≈ 0.0367 µM); IC50 (LNCaP (prostate); three days incubation, SRB): 0.03 µg/mL (≈ 0.055 µM); IC50 (COL-2 (colon); three days incubation, SRB): 0.1 µg/mL (≈ 0.183 µM); IC50 (LU-1 (lung)): 0.03 µg/mL (≈ 0.055 µM); IC50 (ZR-75-1 (breast); three days incubation, SRB): 0.06 µg/mL (≈ 0.11 µM); IC50 (BC-1 (breast); three days incubation, SRB): 0.03 µg/mL (≈ 0.055 µM); IC50 (HT-1080 (sarcoma)): 0.01 µg/mL (≈ 0.0183 µM); IC50 (U373 (glioma); three days incubation, SRB): 0.2 µg/mL (≈ 0.367 µM)
COc1cc([C@@H]2c3cc4c(cc3[C@H](O)[C@H]3COC(=O)[C@H]23)OCO4)cc(OC)c1OC [Podophyllotoxin] | – | – | – | – | – | – | – | cytotoxic activity profile, cell-type selectivity [1]: relatively intense, nonselective cytotoxic activity; IC50 (MEL-2 (melanoma)): 0.003 µg/mL (≈ 0.00724 µM); IC50 (A431 (squamous cells)): 0.03 µg/mL (≈ 0.0724 µM); IC50 [3]: 0.08 µg/mL (≈ 0.193 µM); IC50 (LNCaP (prostate)): 0.04 µg/mL (≈ 0.0965 µM); IC50 (COL-2 (colon)): 0.005 µg/mL (≈ 0.0121 µM); IC50 (ZR-75-1 (breast)): 0.4 µg/mL (≈ 0.965 µM); IC50 (BC-1 (breast)): 0.03 µg/mL (≈ 0.0724 µM); IC50 (U373 (glioma)): 0.004 µg/mL (≈ 0.00965 µM)
CC(=O)O[C@H]1C(=O)[C@@]2(C)[C@H]([C@H](OC(=O)c3ccccc3)[C@]3(O)C[C@H](OC(=O)[C@H](O)[C@@H](NC(=O)c4ccccc4)c4ccccc4)C(C)=C1C3(C)C)[C@]1(OC(C)=O)CO[C@@H]1C[C@@H]2O [Taxol, paclitaxel] | – | – | – | – | – | – | – | cytotoxic activity profile, cell-type selectivity [1]: relatively intense, nonselective cytotoxic activity; IC50 (MEL-2 (melanoma)): 0.06 µg/mL (≈ 0.0703 µM); IC50 [3]: 0.02 µg/mL (≈ 0.0234 µM); IC50 (LNCaP (prostate); three days incubation, SRB): 0.02 µg/mL (≈ 0.0234 µM); IC50 (COL-2 (colon); three days incubation, SRB): 0.02 µg/mL (≈ 0.0234 µM); IC50 (ZR-75-1 (breast); three days incubation, SRB): 0.02 µg/mL (≈ 0.0234 µM); IC50 (BC-1 (breast); three days incubation, SRB): 0.02 µg/mL (≈ 0.0234 µM); IC50 (U373 (glioma); three days incubation, SRB): 0.008 µg/mL (≈ 0.00937 µM)
CC[C@]1(O)C[C@H]2CN(CCc3c([nH]c4ccccc34)[C@@](C(=O)OC)(c3cc4c(cc3OC)N(C=O)[C@H]3[C@@](O)(C(=O)OC)[C@H](OC(C)=O)[C@]5(CC)C=CCN6CC[C@]43[C@@H]65)C2)C1 [Vincristine] | – | – | – | – | – | – | – | cytotoxic activity profile, cell-type selectivity [1]: relatively intense, nonselective cytotoxic activity; IC50 (MEL-2 (melanoma)): 0.02 µg/mL (≈ 0.0242 µM); IC50 (A431 (squamous cells); three days incubation, SRB): 0.01 µg/mL (≈ 0.0121 µM); IC50 (LNCaP (prostate); three days incubation, SRB): 0.1 µg/mL (≈ 0.121 µM); IC50 (COL-2 (colon); three days incubation, SRB): 0.02 µg/mL (≈ 0.0242 µM); IC50 (LU-1 (lung)): 0.05 µg/mL (≈ 0.0606 µM); IC50 (ZR-75-1 (breast); three days incubation, SRB): 0.4 µg/mL (≈ 0.485 µM); IC50 (BC-1 (breast); three days incubation, SRB): 0.01 µg/mL (≈ 0.0121 µM); IC50 (HT-1080 (sarcoma)): 0.02 µg/mL (≈ 0.0242 µM); IC50 (U373 (glioma); three days incubation, SRB): 0.06 µg/mL (≈ 0.0727 µM)
